From US20180008587A1, “THIOHYDANTOIN ANDROGEN RECEPTOR ANTAGONISTS FOR THE TREATMENT OF CANCER” (Jaressen Pharmaceutica NV, priority 2016, published 2018)

Target: T1, AR L701H (Homo sapiens, UniProt P10275, L702H)
T1 construct: expressed in transfected cells; host or cells: HepG2
T1 sequence (P10275 1-920 L702H): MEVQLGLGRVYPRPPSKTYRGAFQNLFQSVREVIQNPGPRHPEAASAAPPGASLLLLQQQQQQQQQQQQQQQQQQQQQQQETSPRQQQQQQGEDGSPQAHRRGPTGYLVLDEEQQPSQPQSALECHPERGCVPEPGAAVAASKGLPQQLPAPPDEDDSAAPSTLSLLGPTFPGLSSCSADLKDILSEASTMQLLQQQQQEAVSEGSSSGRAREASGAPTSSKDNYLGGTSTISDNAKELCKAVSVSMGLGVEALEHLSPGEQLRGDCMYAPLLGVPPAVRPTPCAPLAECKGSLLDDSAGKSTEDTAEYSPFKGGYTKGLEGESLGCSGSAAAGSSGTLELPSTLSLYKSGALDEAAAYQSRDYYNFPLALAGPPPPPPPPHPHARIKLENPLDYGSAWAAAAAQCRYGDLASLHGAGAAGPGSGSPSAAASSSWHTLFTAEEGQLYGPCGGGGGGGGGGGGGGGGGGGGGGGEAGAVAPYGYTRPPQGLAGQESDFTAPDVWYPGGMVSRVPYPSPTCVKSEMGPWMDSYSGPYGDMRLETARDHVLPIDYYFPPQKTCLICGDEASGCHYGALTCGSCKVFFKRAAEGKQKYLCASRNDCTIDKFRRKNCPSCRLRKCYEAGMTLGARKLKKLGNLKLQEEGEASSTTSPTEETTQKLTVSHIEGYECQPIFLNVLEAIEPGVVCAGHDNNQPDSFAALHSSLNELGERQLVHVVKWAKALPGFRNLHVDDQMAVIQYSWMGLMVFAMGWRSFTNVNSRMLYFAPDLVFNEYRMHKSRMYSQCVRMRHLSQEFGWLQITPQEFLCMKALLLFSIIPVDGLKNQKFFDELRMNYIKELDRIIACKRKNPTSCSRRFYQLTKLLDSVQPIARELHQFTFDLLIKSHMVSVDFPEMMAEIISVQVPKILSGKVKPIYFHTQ
Assay: Luciferase transcriptional reporter assay, mutant AR, HepG2, antagonist mode
Assay type: cell-based
Conditions: HepG2, 90 pM R1881, 48 hours; * denotes incomplete inhibition (otherwise 100%); read-out: Antagonism; IC50, AR construct L701H
Procedure: HepG2 cells were maintained in EMEM supplemented with 10% FBS. One day before transfection, the media was changed to EMEM with 10% CSS. T-150 flasks were transiently transfected using 120 μL Lipofectamine 2000 (Life Technologies), 30 μg mutant cDNA (expression vector)—mutant cDNA tested were L701H, T877A, W741C and H874Y—and 40 μg 4×ARE-Luciferase (reporter vector) in OptiMEM and the flasks were incubated overnight. Cells were then trypsinized, counted and resuspended at 500,000 cells/mL. For agonist mode, the compounds of Formula (I) are serially diluted and 50 μL of the compound added per well. 50 μL of the cells are added to each well and incubated for 48 hours. For antagonist mode, a final concentration of 90 pM R1881 was added to the diluted compounds and incubated for 48 hours. The plates were then assayed using SteadyGlo and read on the Envision. Percent Stimulation and Inhibition is determined and analyzed using GraphPad Prism.
All values are calculated relative to the activity of R1881 induced androgen receptor activity (n≧3).

**Q.** For `N#Cc1ncc(N2C(=O)C3(CCC3)N(c3ccc(OC4CCNCC4)cc3)C2=S)cc1C(F)(F)F` [Cpd 35, 5-[5-oxo-8-[4-(4-piperidyloxy)phenyl]-7-thioxo-6,8-diazaspiro[3.4]octan-6-yl]-3-(trifluoromethyl)pyridine-2-carbonitrile], which IC50 is on record?
**A.** 3.36 µM
